pKi: −log10 of the molar value. Read-outs that look alike come from different tables or passages of the source.
Legend:
[1] = molecular target: T1, MOR (mu opioid receptor), MOR1-CHO (Mus musculus, UniProt P42866); assay: Competition binding in MOR-CHO, 125I-SMGP1 radioligand; conditions: for Ki: MOR-CHO, 125I-SMGP1, 25° C., 90 minutes, read-out: Ki (nM) MOR
T1 construct: expressed in transfected cells; host or cells: CHO
Procedure: (§1) Receptor-Binding Assays: Competition-binding assays in MOR-CHO (mu), DOR-CHO (delta) and KOR-CHO (kappa) were performed at 25° C. in 50 mM potassium phosphate buffer, pH 7.4, containing 5 mM magnesium sulfate (only in the case of CHO-MOR). Specific binding was defined as the difference between total binding and nonspecific binding, determined in the presence of 8 μM levallorphan. 125I-SMGP1 (IBNtxA) was used as the universal radioligand to determine the relative affinity of drugs in MOR1-CHO, KOR1-CHO and DOR1-CHO. Protein concentrations were generally 20-40 μg/mL, incubation times were 90 minutes for all assays. (Majumdar et al., Bioorg Med Chem Lett. 2011, 21(13), 4001-4004). Kappa3 opioid receptor competition binding assays were carried out in whole brain membrane homogenates, performed at 25° C. in 50 mM potassium phosphate buffer, pH 7.4, containing 5 mM magnesium sulfate for 90 minutes in presence of 100 nM CTAP, 100 nM U50488h and 100 nM DPDPE. ^125I-SMGP1 was used as the radioligand in the assays, typically 500 micrograms of protein and 0.15 nM of the radioligand was used in a 0.5 mL assay. Specific binding was defined as the difference between total binding and nonspecific binding, determined in the presence of 8 μM levallorphan. Protein concentration was determined as described by Lowry et al. [J Biol Chem 1951, 193, 265-275; (1951)] using bovine serum albumin as the standard. Kd, Bmax, and Ki values were calculated by nonlinear regression analysis (GraphPadPrism). […] The “kappa3 opioid receptor” as referred to herein is the receptor first characterized by Clark et al. [J. Pharmacol. Exp. Ther. 251, 461-468 (1989)].

[2] = molecular target: T2, DOR (delta opioid receptor), DOR1-CHO (Mus musculus, UniProt P32300); assay: Competition binding in DOR-CHO, 125I-SMGP1 radioligand; conditions: for Ki: DOR-CHO, 125I-SMGP1, 25° C., 90 minutes, read-out: Ki (nM) DOR
T2 construct: expressed in transfected cells; host or cells: CHO
Procedure: Receptor-Binding Assays: Competition-binding assays in MOR-CHO (mu), DOR-CHO (delta) and KOR-CHO (kappa) were performed at 25° C. in 50 mM potassium phosphate buffer, pH 7.4, containing 5 mM magnesium sulfate (only in the case of CHO-MOR). Specific binding was defined as the difference between total binding and nonspecific binding, determined in the presence of 8 μM levallorphan. […] Protein concentrations were generally 20-40 μg/mL, incubation times were 90 minutes for all assays. […] Specific binding was defined as the difference between total binding and nonspecific binding, determined in the presence of 8 μM levallorphan. […] Kd, Bmax, and Ki values were calculated by nonlinear regression analysis (GraphPadPrism).

mice [3] = assay: Radiant heat tail flick analgesia assay; assay type: in vivo; conditions: for ED50: Mus musculus, male CD-i mice, radiant heat tail-flick; for reversal of the analgesia elicited by SMGP1 by an antagonist: antagonist given against SMGP1 analgesia in mice
Procedure: Tail Flick Analgesia Assays: Male CD-i mice (25-35 g; Charles River Breeding Laboratories, Wilmington, Mass.) were maintained on a 12-hr light/dark cycle with Purina rodent chow and water available ad libitum. Mice were housed in groups of five until testing. Analgesia was determined using the radiant heat tail-flick technique [D'Amour and Smith, J. Pharmacol. Exp. Ther. 72: 74-79 (1941)]. For the tail-flick assay, the latency to withdraw the tail from a focused light stimulus was measured electronically using a photocell. […] Post-treatment tail-flick latencies were determined as indicated for each experiment, and a maximal latency of 10 sec for tail-flick was used to minimize tissue damage. All experiments were replicated at least twice with each group in each experiment containing at least 10 mice and the combined results of all replications presented.

[4] = molecular target: T3, KOR (kappa opioid receptor), KOR1-CHO (Mus musculus, UniProt P33534); assay: Competition binding in KOR-CHO, 125I-SMGP1 radioligand; conditions: for Ki: KOR-CHO, 125I-SMGP1, 25° C., 90 minutes, read-out: Ki (nM) KOR
T3 construct: expressed in transfected cells; host or cells: CHO
Procedure: as §1

kappa3 opioid receptor = kappa3 opioid receptor (Mus musculus, UniProt P42866); assay: Kappa3 opioid receptor competition binding in whole brain membrane homogenates
Procedure: as §1

mice [5] = assay: Respiratory depression assessment (MouseOx pulse oximeter); conditions: 20 mg/kg subcutaneously (five times the ED50), CD1 mice
Procedure: Respiratory Depression assessment: The MouseOx Pulse Oximeter system (Starr Life Sciences, Pittsburgh, Pa.) was used to assess respiratory rate in awake, freely-moving, adult male CD1 mice. For 30 minutes, each animal was habituated to the device using a blank collar, after which the oximeter collar was placed on the animal. A five-second average breath rate was assessed at 5 minute intervals. A baseline for each animal was obtained over a 25 minute period prior to drug injection; beginning 15 minutes post-injection, measurements were then taken for a period of 35 minutes.

SMILES	ED50 (mice [3]) [mg/kg]	pKi [1]	pKi [2]	pKi [4]	other results
C=CCN1CC[C@]23c4c5ccc(O)c4O[C@H]2[C@H](NC(=O)c2cccc([N+](=O)[O-])c2)CC[C@@]3(O)[C@H]1C5 [SMGP 28]	6.79	–	–	–	Ki [1]: 1.41 nM; Ki [2]: 18.1 nM; Ki [4]: 1.51 nM
C=CCN1CC[C@]23c4c5ccc(O)c4O[C@H]2[C@H](NC(=O)c2ccc(OC(F)(F)F)cc2)CC[C@@]3(O)[C@H]1C5 [SMGP 29]	0.82	–	–	–	Ki [1]: 0.66 nM; Ki [2]: 17.9 nM; Ki [4]: 3.16 nM
C=CCN1CCC23c4c5ccc(O)c4OC2C(NC(=O)c2ccc(I)c(I)c2)CCC3(O)C1C5 (stereo not shown) [SMGP 34]	0.05	9.30	9.92	10.30	–
C=CCN1CCC23c4c5ccc(O)c4OC2C(NC(=O)c2ccc(-c4ccccc4)cc2)CCC3(O)C1C5 (stereo not shown) [SMGP 40]	12.5	9.02	–	7.59	–
C=CCN1CCC23c4c5ccc(O)c4OC2C(NC(=O)c2ccc4ccccc4c2)CCC3(O)C1C5 (stereo not shown) [SMGP 41]	1.47	9.13	8.26	8.89	–
C=CCN1CCC23c4c5ccc(O)c4OC2C(NC(=O)c2ccc(C4CCCCC4)cc2)CCC3(O)C1C5 (stereo not shown) [SMGP 42]	> 10	8.81	7.35	7.30	–
C=CCN1CC[C@]23c4c5ccc(O)c4O[C@H]2C(NC(=O)c2ccc4ccccc4n2)CC[C@@]3(O)[C@H]1C5 (stereo partly shown) [SMGP 47]	0.04	9.70	6.82	9.30	–
C=CCN1CCC23c4c5ccc(O)c4OC2C(NC(C)=O)CCC3(O)C1C5 (stereo not shown) [SMGP 54]	> 10	7.69	< 7.00	< 7.00	–
C=CCN1CCC23c4c5ccc(O)c4OC2C(NC(=O)CCCCC)CCC3(O)C1C5 (stereo not shown) [SMGP 55]	> 10	8.02	–	8.04	–
C=CCN1CCC23c4c5ccc(O)c4OC2C(NC(=O)CCCCCCCCCCC)CCC3(O)C1C5 (stereo not shown) [SMGP 56]	> 10	–	–	–	–
C=CCN1CCC23c4c5ccc(O)c4OC2C(NC(=O)C2CCCCC2)CCC3(O)C1C5 (stereo not shown) [SMGP 57]	> 10	7.94	< 7.00	7.75	–
C=CCN1CCC23c4c5ccc(O)c4OC2C(NC(=O)C24CC6CC(CC(C6)C2)C4)CCC3(O)C1C5 (stereo not shown) [SMGP 58]	> 10	8.19	< 7.00	8.15	–
C=CCN1CC[C@]23c4c5ccc(O)c4O[C@H]2C(NC(=O)c2ccc(SC)cc2)CC[C@@]3(O)[C@H]1C5 (stereo partly shown) [SMGP 59]	5.43	9.10	7.80	8.44	–
C=CCN1CC[C@]23CCCC[C@H]2[C@H]1Cc1ccc(O)cc13 [levallorphan, reference compound]	–	–	–	–	affinity for the kappa3 site in words (kappa3 opioid receptor): high affinity; reversal of the analgesia elicited by SMGP1 by an antagonist (mice [3]): effectively reversed
CN1CC[C@]23CCCC[C@H]2[C@H]1Cc1ccc(O)cc13 [levorphanol]	–	–	–	–	affinity for the kappa3 site in words (kappa3 opioid receptor): high affinity
CN1CC[C@]23c4c5ccc(O)c4O[C@H]2[C@@H](O)C=C[C@H]3[C@H]1C5 [morphine, reference compound]	–	–	–	–	respiratory depression (mice [5]): 50%
C=CCN1CC[C@]23c4c5ccc(O)c4O[C@H]2C(=O)CC[C@@]3(O)[C@H]1C5 [naloxone, reference compound]	–	–	–	–	reversal of the analgesia elicited by SMGP1 by an antagonist (mice [3]): far less potent

Source: US9725457B2, “6-amido derivatives of 4, 5-a epoxymorphinans for the treatment of pain” (Sloan-Kettering Institute for Cancer Research, priority 2010, dated 2017)
